Here are results for 27 molecules from patent US12391692B2, “Spiro ring-containing quinazoline compound” (WIGEN BIOMEDICINE TECHNOLOGY (SHANGHAI) CO., LTD., priority 2020, dated 2025).

Where only a bound is given, the exact number is not on record here.

One test relates to H358 cells. In words: Antiproliferative activity against H358 cells (Cell Titer Glow, ultra-low attachment plate). The format is cell-based. The note with it: Homo sapiens, NCI-H358, 72 h, three days after addition of compound. As for the experimental part: 2500 H358 cells were seeded in a 96-well ultra-low attachment plate (corning, 7007). After one day of growth, a serially diluted compound (a maximum concentration of 5 μM, 5-fold dilution, a total of five doses) was added. Three days after the addition of the compound, Cell Titer Glow (Promega, G9681) was added to evaluate pellet growth, and the IC50 value was calculated.

For the next test, the system named is pERK level in H358 cells. In words: pERK and ERK protein content assay in H358 cells (ELISA). The format is cell-based. The note with it: Homo sapiens, NCI-H358, pERK/ERK ratio vs DMSO group, compound 1 μM, 24 h, read-out: Inhibition rate (%). How it is done:
H358 cells were seeded in a 24-well plate. After one day of growth, a test compound (at a concentration of 1 μM) was added. After 24 h of action of the compound, the cells were lysed, and the cell lysate was transferred to a 96-well ELISA plate. The levels of pERK and ERK in the lysate were measured using an ELISA kit (abcam 176660). The ratio of pERK to ERK was calculated and compared with that of the DMSO group, and the percentage of inhibition of pERK activity by the compound was calculated.
On the technique in general: ELISA stands for enzyme-linked immunosorbent assay.

Take `C=CC(=O)N1CC2(CCN(c3nc(N4CC(N5CC6(CC6)C5)C4)nc4c(O[C@@H](C)C(F)(F)F)c(-c5c(C)ccc6[nH]ncc56)c(C5CC5)cc34)CC2)C1` [Compound 99]: in the test with H358 cells, the IC50 (usually the concentration needed to halve the response being measured) was under 300 nM. Moreover, in the test with pERK level in H358 cells, the inhibition (in general, the share of the control response that was lost under treatment) at 1 µM was over 90%.

On to `C=CC(=O)N1CC2(CCN(c3nc(O[C@H]4C[C@@H](N5CCC5)C4)nc4c(OCC(F)(F)F)c(-c5c(C)ccc6[nH]ncc56)c(C5CC5)cc34)CC2)C1` [Compound 87], for which the IC50 with H358 cells is under 300 nM. Further, in the test with pERK level in H358 cells, the inhibition at 1 µM is over 90%.

With `C=CC(=O)N1CC2(CCN(c3nc(N4CC(C(=O)N5CC6(CN(C)C6)C5)C4)nc4c(OCC(F)(F)F)c(-c5c(C)ccc6[nH]ncc56)c(C5CC5)cc34)CC2)C1` [Compound 48], the IC50 in the test on H358 cells lay within 300 to 1000 nM. For the same molecule, the inhibition at 1 µM in the test with pERK level in H358 cells fell in the range of 50 to 90%.

In the test with H358 cells, `C=CC(=O)N1CC2(CCN(c3nc(N4CC(CN(C)CCO)C4)nc4c(OCC(F)(F)F)c(-c5c(C)ccc6[nH]ncc56)c(C5CC5)cc34)CC2)C1` [Compound 4] registered an IC50 of under 300 nM. In addition, the inhibition at 1 µM in the test with pERK level in H358 cells is over 90%.

Consider `C=CC(=O)N1CC2(CCN(c3nc(N4CC5(CC5)C4)nc4c(OCC(F)(F)F)c(-c5c(C)ccc6[nH]ncc56)c(C5CC5)cc34)CC2)C1` [Compound 65], for which the IC50 in the test with H358 cells was 300 to 1000 nM. In addition, the inhibition at 1 µM with pERK level in H358 cells fell in the range of 50 to 90%.

`C=CC(=O)N1CC2(CCN(c3nc(O[C@H]4C[C@H](N5CCC(F)(F)C5)C4)nc4c(OCC(F)(F)F)c(-c5c(C)ccc6[nH]ncc56)c(C5CC5)cc34)CC2)C1` [Compound 92] displayed an IC50 in the test on H358 cells of over 1000 nM. Besides, the inhibition at 1 µM in the test with pERK level in H358 cells lay in the range of 50 to 90%.

For the molecule `C=CC(=O)N1CC2(CCN(c3nc(N4CC(C)(N(C)C)C4)nc4c(OCC(F)(F)F)c(-c5c(C)ccc6[nH]ncc56)c(C5CC5)cc34)CC2)C1` [Compound 59], in the test on H358 cells, the IC50 is under 300 nM. In addition, the inhibition at 1 µM with pERK level in H358 cells is over 90%.

In the test with H358 cells, `C=CC(=O)N1CC2(CCN(c3nc(N4CC(N5CC6(CC6)C5)C4)nc4c(OCC(F)(F)F)c(-c5c(C)ccc6[nH]cnc56)c(C5CC5)cc34)CC2)C1` [Compound 107] returned a half-maximal inhibitory concentration (IC50) of under 300 nM. Also, the inhibition at 1 µM in the test on pERK level in H358 cells was over 90%.

The molecule `C=CC(=O)N1CC2(CCN(c3nc(N4CC(OCC5COC5)C4)nc4c(OCC(F)(F)F)c(-c5c(C)ccc6[nH]ncc56)c(C5CC5)cc34)CC2)C1` [Compound 18] yielded an IC50 in the test on H358 cells of under 300 nM. For the same molecule, the inhibition at 1 µM in the test with pERK level in H358 cells was over 90%.

`C=CC(=O)N1CC2(CCN(c3nc(O[C@H]4C[C@H](N5CCCC5)C4)nc4c(OCC(F)(F)F)c(-c5c(C)ccc6[nH]ncc56)c(C5CC5)cc34)CC2)C1` [Compound 90] yielded an IC50 with H358 cells of 300 to 1000 nM. Also, in the test with pERK level in H358 cells, the inhibition at 1 µM was 50 to 90%.

In the case of `C=CC(=O)N1CC2(CCN(c3nc(N4CC(N5CC6(CC6)C5)C4)nc4c(OCC(F)F)c(-c5c(C)ccc6[nH]ncc56)c(C5CC5)cc34)CC2)C1` [Compound 98], in the test with H358 cells, the IC50 is under 300 nM. Besides, the inhibition at 1 µM in the test on pERK level in H358 cells is over 90%.

As for `C=CC(=O)N1CC2(CCN(c3nc(N4CC(n5ccnc5)C4)nc4c(OCC(F)(F)F)c(-c5c(C)ccc6[nH]ncc56)c(C5CC5)cc34)CC2)C1` [Compound 41], in the test with H358 cells, the IC50 fell in the range of 300 to 1000 nM. Moreover, in the test with pERK level in H358 cells, the inhibition at 1 µM is 50 to 90%.

In the case of `C=CC(=O)N1CC2(CCN(c3nc(N4CC(CN(C)CCOC)C4)nc4c(OCC(F)(F)F)c(-c5c(C)ccc6[nH]ncc56)c(C5CC5)cc34)CC2)C1` [Compound 5], the IC50 in the test on H358 cells is under 300 nM. For the same molecule, the inhibition at 1 µM in the test with pERK level in H358 cells was over 90%.

In the test with H358 cells, `C=CC(=O)N1CC2(CCN(c3nc(N4CC5(C=CCN5C)C4)nc4c(OCC(F)(F)F)c(-c5c(C)ccc6[nH]ncc56)c(C5CC5)cc34)CC2)C1` [Compound 127] displayed an IC50 of under 300 nM. Further, in the test on pERK level in H358 cells, the inhibition at 1 µM is over 90%.

For the molecule `C=CC(=O)N1CC2(CCN(c3nc(N4CC5(CC(=C)CN5C)C4)nc4c(OCC(F)(F)F)c(-c5c(C)ccc6[nH]ncc56)c(C5CC5)cc34)CC2)C1` [Compound 125], the IC50 in the test with H358 cells is under 300 nM. The inhibition at 1 µM in the test with pERK level in H358 cells is over 90%.

In turn, `C=CC(=O)N1CC2(C1)CN(c1nc(N3CC(N4CC5(CC5)C4)C3)nc3c(OCC(F)(F)F)c(-c4c(C)ccc5[nH]ncc45)c(C4CC4)cc13)C2` [Compound 101] returned an IC50 with H358 cells of under 300 nM. Further, the inhibition at 1 µM with pERK level in H358 cells is over 90%.

In the case of `C=CC(=O)N1CC2(CCN(c3nc(N4CC5(C4)CC(F)(F)CN5CC)nc4c(OCC(F)(F)F)c(-c5c(C)ccc6[nH]ncc56)c(C5CC5)cc34)CC2)C1` [Compound 130], the concentration for half-maximal inhibition (IC50) in the test with H358 cells was under 300 nM. Moreover, in the test with pERK level in H358 cells, the inhibition at 1 µM was over 90%.

In the test on H358 cells, `C=CCN1CCCC12CN(c1nc(N3CCC4(CC3)CN(C(=O)C=C)C4)c3cc(C4CC4)c(-c4c(C)ccc5[nH]ncc45)c(OCC(F)(F)F)c3n1)C2` [Compound 119] showed an IC50 of under 300 nM. Also, the inhibition at 1 µM with pERK level in H358 cells is over 90%.

As for `C=CC(=O)N1CC2(CCN(c3nc(N4CC(CC#N)(N(C)CCOC)C4)nc4c(OCC(F)(F)F)c(-c5c(C)ccc6[nH]ncc56)c(C5CC5)cc34)CC2)C1` [Compound 53], in the test with H358 cells, the IC50 is under 300 nM. Moreover, in the test with pERK level in H358 cells, the inhibition at 1 µM was over 90%.

Molecule `C=CC(=O)N1CC2(CCN(c3nc(N4CC(N5CC6(CC6)C5)C4)nc4c(OCC(F)(F)F)c(-c5c(C)ccc6[nH]nc(C)c56)c(C5CC5)cc34)CC2)C1` [Compound 106] returned an IC50 in the test on H358 cells of under 300 nM. Moreover, in the test with pERK level in H358 cells, the inhibition at 1 µM was over 90%.

In turn, `C=CC(=O)N1CC2(CCN(c3nc(N4CC(CN(C)C)C4)nc4c(OCC(F)(F)F)c(-c5c(C)ccc6[nH]ncc56)c(C5CC5)cc34)CC2)C1` [Compound 1, 1-(7-(6-cyclopropyl-2-(3-((dimethylamino)methyl)azetidin-1-yl)-7-(5-methyl-1H-indazol-4-yl)-8-(2,2,2-trifluoroethoxy)quinazolin-4-yl)-2,7-diazaspiro[3.5]non-2-yl)prop-2-en-1-one] returned a half-inhibitory concentration (IC50) with H358 cells of under 300 nM. Further, in the test with pERK level in H358 cells, the inhibition at 1 µM is over 90%.

The molecule `C=CC(=O)N1CC2(CCN(c3nc(N4CC(C(=O)N5CCN(C)CC5)C4)nc4c(OCC(F)(F)F)c(-c5c(C)ccc6[nH]ncc56)c(C5CC5)cc34)CC2)C1` [Compound 46] gave an IC50 with H358 cells of under 300 nM. The inhibition at 1 µM with pERK level in H358 cells was over 90%.

In the test with H358 cells, `C=CC(=O)N1CC2(CCN(c3nc(N4CCC5(CCCN5C)CC4)nc4c(OCC(F)(F)F)c(-c5c(C)ccc6[nH]ncc56)c(C5CC5)cc34)CC2)C1` [Compound 79] yielded an IC50 of under 300 nM. Further, the inhibition at 1 µM in the test on pERK level in H358 cells is over 90%.

`C=CC(=O)N1CC2(CCN(c3nc(N4CC5(CCN5CC(F)(F)F)C4)nc4c(OCC(F)(F)F)c(-c5c(C)ccc6[nH]ncc56)c(C5CC5)cc34)CC2)C1` [Compound 68] came in with an IC50 in the test on H358 cells of under 300 nM. Also, in the test with pERK level in H358 cells, the inhibition at 1 µM was over 90%.

In the test with H358 cells, `C=CC(=O)N1CC2(CCN(c3nc(N4CC(OC5CC5)C4)nc4c(OCC(F)(F)F)c(-c5c(C)ccc6[nH]ncc56)c(C5CC5)cc34)CC2)C1` [Compound 12] returned an IC50 of under 300 nM. For the same molecule, the inhibition at 1 µM in the test with pERK level in H358 cells is over 90%.

As to `C=CC(=O)N1CC2(CCN(c3nc(N4CC5(C4)CC(F)(F)CN5C)nc4c(OCC(F)(F)F)c(-c5c(C)ccc6[nH]ncc56)c(C5CC5)cc34)CC2)C1` [Compound 129], the IC50 with H358 cells is under 300 nM. The inhibition at 1 µM in the test on pERK level in H358 cells is over 90%.

In turn, `C=CC(=O)N1CC2(CCN(c3nc(N4CC(N5CC6(CC6)C5)C4)nc4c(OCC(F)(F)F)c(-c5c(C)c(C)cc6[nH]ncc56)c(C5CC5)cc34)CC2)C1` [Compound 105] showed an IC50 with H358 cells of under 300 nM. Moreover, the inhibition at 1 µM in the test on pERK level in H358 cells is over 90%.
